Assays:
human MAL = assay: Phage display screening of TIR domain-derived peptide library against immobilized MAL, NGS analysis after four rounds; type: binding; details: for NGS count: phages remaining after fourth round
Experimental: (§1) First, vector cloning was performed by synthesizing a DNA sequence for expressing each peptide belonging to the library constructed in Example 1. Vector cloning was performed using p3/p8 phagemids.
(§2) After the fourth round, the remaining phages were obtained by binding to the finally immobilized target proteins, and peptide sequences binding to the target and the relative distribution of each sequence were confirmed by performing NGS analysis on phagemids in the phages.

human MYD88 = assay: Phage display screening of TIR domain-derived peptide library against immobilized MyD88, NGS analysis after four rounds; type: binding; details: for NGS count: phages remaining after fourth round
Experimental: as §1, §2

[1] = P8_MAL: library displayed on P8 coat protein
[2] = P8_MAL: relative distribution of the sequence in NGS
[3] = P3_MAL: library displayed on P3 coat protein
[4] = P3_MAL: relative distribution of the sequence in NGS
[5] = P3_MyD88: library displayed on P3 coat protein
[6] = P3_MyD88: relative distribution of the sequence in NGS

Row | Sequence | NGS count (human MAL; [1]) | Population (human MAL; [2]) [%] | NGS count (human MAL; [3]) | Population (human MAL; [4]) [%] | NGS count (human MYD88; [5]) | Population (human MYD88; [6]) [%] | other results
1 | QLIQQWIELHLHQLHL | 9394 | 2.90 |  |  |  |  | NGS count (human MYD88; P8_MyD88: library displayed on P8 coat protein): 1605; Population (human MYD88; P8_MyD88: relative distribution of the sequence in NGS): 0.62%
2 | KEVEGWRDALTKVASL |  |  | 3758 | 1.41 | 5187 | 1.80 | 
3 | LKVESWRQALEKAGKL |  |  | 5180 | 2.32 | 16847 | 4.91 | 
4 | ESILNQLRRSSQSIAN |  |  | 3680 | 1.38 | 1976 | 0.58 | 
5 | RNNFIGHLYQALYRIG | 3120 | 0.96 |  |  |  |  | 
6 | LFFWESLKQLLRSDGR | 22560 | 5.97 |  |  |  |  | 
7 | NELVHVWSSKANSLVG |  |  | 1836 | 0.69 | 8816 | 2.57 | 
8 | SLRKNLVSNLIEEFKR |  |  | 3569 | 1.34 |  |  | 
9 | PNLRTKVLNYLMRTKT |  |  | 26931 | 10.12 |  |  | 
10 | AYANFRQGLLRLLELA | 466 |  |  |  |  |  | 
11 | AFFWEQLRTVLGKPTM | 11826 | 3.65 |  |  |  |  | 
12 | DHHLDLPRGKAIKPEILG |  |  | 2280 | 0.86 | 26722 | 7.78 | 
13 | KNLFNELVSKNIRTFM |  |  | 3259 | 1.22 | 8543 | 2.49 | 
14 | GFLYQAFAREGFKIFM |  |  | 1764 | 0.66 | 2579 | 0.75 | 
15 | LKWGDPYFWSKLRYAM |  |  | 5128 | 1.93 | 8310 | 2.42 | 
16 | DWFLSKLSQHILKREK |  |  | 4580 | 1.72 |  |  | 
17 | YNFISHLYDALHRNRI |  |  | 2678 | 1.01 | 2891 | 0.84 | 
18 | SEFIQKIILWMNPKIV | 4458 | 1.38 |  |  |  |  | 

Row | Sequence | NGS count (human MAL; [1]) | Population (human MAL; [2]) [%] | NGS count (human MAL; [3]) | Population (human MAL; [4]) [%] | NGS count (human MYD88; [5]) | Population (human MYD88; [6]) [%] | other results
19 | FTLAVHVRNWLVGGFI | 520 |  |  |  |  |  | 
20 | YFLHFLLFSRPETEYI | 17198 | 5.31 |  |  |  |  | 
21 | KLFWEKFKEFFLPSLSR | 4888 | 1.51 |  |  |  |  | 
22 | KMQKWKDALYEAANLS |  |  | 4427 | 1.66 |  |  | 
23 | WFLTAFRMAMDQVADT | 353 |  |  |  |  |  | 
24 | NQWRNALTAAANLSGW | 848 |  | 25831 | 9.71 | 28662 | 8.35 | 
25 | LQNQWKLALTKVANLV |  |  | 2285 | 0.86 |  |  | 
26 | VEPTQVRKQSGAVENA |  |  | 2283 | 0.86 |  |  | 
27 | RNFVAYLFQALANKGI | 27950 | 8.63 |  |  |  |  | 
28 | AWALHQLQQIINWHET | 232 | 0.07 |  |  |  |  | 
29 | KLIQGWFLYRLLKIEQ | 2068 |  |  |  |  |  | 
30 | WALQELVKILQAKIFL | 227 | 0.07 |  |  |  |  | 
31 | HQAFWNRLWAKLKPPT |  |  | 1932 | 0.73 |  |  | 
32 | YLKWGYPWFWDRLRFA | 517 |  | 1680 | 0.63 | 7321 | 2.13 | 
33 | FLNFRGLDVRNYFLGH |  |  | 2855 | 1.07 |  |  | 
34 | EWIREQLRPALKERLP |  |  | 2354 | 0.88 | 16821 | 4.90 | 
35 | YAFTGHLHRYLVQRGV |  |  | 43764 | 16.44 | 13420 | 3.91 | 
36 | DTKLKKGESIAPELLR | 5617 | 1.74 |  |  | 2465 | 0.72 | 

Reference: patent publication EP4613859A1, “TLR SIGNALING INHIBITORY PEPTIDE AND COMPOSITION INCLUDING SAME FOR PREVENTION OR TREATMENT OF INFLAMMATORY DISEASES” (Korea Institute of Science and Technology, priority 2022, dated 2025)
